The source made the active and inactive calls. No cut-off for these calls is given here.
Experiments:
[1] = system: T-cell; experiment: Inhibition of ConA-induced IL-2 expression in BALB/c mouse T-lymphocyte measured after 24 hrs by ELISA; type: functional, tissue-based
[2] = system: Splenocyte; experiment: Cytotoxicity against BALB/c mouse splenocyte assessed as reduction in cell viability measured after 72 hrs by CCK-8 assay; type: cell-based
[3] = system: T-cell; experiment: Inhibition of ConA-induced IL-2 expression in BALB/c mouse T-lymphocyte at 40 uM measured after 24 hrs by ELISA; type: functional, tissue-based
[4] = system: Splenocyte; experiment: Immunosuppressive activity in C57BL/6 mouse splenocyte assessed as inhibition of mixed lymphocyte reaction when cocultured with mitomycin-C pretreated BALB/c mouse splenocyte measured up to 72 hrs by CCK-8 assay; type: functional, cell-based; settings: C57BL/6, Splenocyte
[5] = system: Splenocyte; experiment: Inhibition of NFAT phosphorylation in BALB/c mouse splenocyte at 5 to 30 uM by immunoblotting analysis; type: tissue-based; settings: dose 5-30 µM
[6] = system: Splenocyte; experiment: Inhibition of NFAT activation in BALB/c mouse splenocyte at 5 to 30 uM by immunoblotting analysis; type: tissue-based; settings: dose 5-30 µM
[7] = molecular target: Calcineurin subunit B type 1 (Homo sapiens, UniProt P63098); experiment: Inhibition of CNB (unknown origin) using p-NPP as substrate preincubated for 10 mins followed by substrate addition by spectrophotometry analysis
Sequence of Calcineurin subunit B type 1 (P63098 2-170 limits assumed): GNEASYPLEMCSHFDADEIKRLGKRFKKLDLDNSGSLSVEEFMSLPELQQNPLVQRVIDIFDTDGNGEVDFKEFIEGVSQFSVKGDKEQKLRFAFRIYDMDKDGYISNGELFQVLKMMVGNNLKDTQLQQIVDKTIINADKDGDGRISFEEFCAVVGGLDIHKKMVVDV

[8] = Inhibition of ConA-induced proliferation of BALB/c mouse splenocyte measured after 72 hrs by CCK-8 assay; type: functional, tissue-based

IC50 [7] [µM] | inhibition [7] | Compound | inhibition [1] | IC50 [2] [µM] | inhibition [3] | IC50 [4] [µM] | inhibition [5] | inhibition [6] | IC50 [8] [µM]
24 |  | CC[C@@H]1[C@@H](C)O[C@@](OC)([C@@H](C)[C@H](O)[C@H](C)[C@H]2OC(=O)/C=C/C=C/[C@H](C)[C@@H]([C@@H](C)[C@@H](O)[C@H](C)C(O)/C=C/[C@H](CC)[C@@H](C)O)OC(=O)/C=C/C=C/[C@@H]2C)C[C@H]1O[C@H]1C[C@H](O)[C@H](O)[C@H](C)O1 (some centres undefined) | Dose-Dependent Effect | 49 | Active | 27.9 | Active | Active | 24.6
 | inactive | CC[C@@H]1[C@@H](C)O[C@@](O)([C@@H](C)[C@H](O)[C@H](C)[C@H]2OC(=O)/C=C/C=C/[C@H](C)[C@@H]([C@@H](C)[C@@H](O)[C@H](C)C(O)/C=C/[C@H](CC)[C@@H](C)O)OC(=O)/C=C/C=C/[C@@H]2C)C[C@H]1O[C@H]1C[C@H](O)[C@H](O)[C@H](C)O1 (some centres undefined) |  |  |  |  |  |  | 

— ChEMBL document CHEMBL4828704, “Efophylins A and B, Two C2-Asymmetric Macrodiolide Immunosuppressants from Streptomyces malaysiensis” (J Nat Prod, 2021)
